Measurements taken from patent US20020107202A1, “Synthetic complementary peptides and ophthalmologic uses thereof” (priority 1999, published 2002).
No end group written: not given here.

Columns and labels:
[1] = system: PMN activated by ultrafiltered tripeptide chemoattractants; assay: Polarization assay: inhibition of PMN polarization activated by alkali-degraded rabbit corneal ultrafiltrate; format: cell-based, human
Experimental: (§1) Following the technique of Ferrante and Thong^13, polymorphonuclear leukocytes were isolated from fresh heparinized human whole blood by centrifugation on Hypaque-Ficoll (density=1.114) according to a described method^14. […] Purified polymorphonuclear leukocytes were used in the polarization assay. All incubation mixtures were maintained between an osmolality of 280 to 320, a pH range of 7.2 to 7.6, 15 mM phosphate buffer, and 50 μM Ca^2+ and 50 μM Mg^2+.
(§2) The polarization assay^15 was performed in a blind fashion. This assay was used to determine the polymorphonuclear leukocyte response to chemoattractants and inhibitors by measuring the frequency and degree of cellular shape change. Briefly, 2×10^5 polymorphonuclear leukocytes were mixed with preincubated synthetic complementary peptides and chemoattractants in a reaction chamber (total volume=100 μl) at 37° C. for 5 min. At the end of the incubation period an aliquot was collected and mixed with an equal volume of 4% glutaraldehyde for microscopic observation. The remaining volume of each cell suspension was immediately centrifuged at 15,000× g for 5 seconds to remove cells. […] Polymorphonuclear leukocytes in each sample were observed microscopically and assigned scores of 0 (resting=spherical cell with a smooth membrane), 1 (activated=irregular cell with uneven membranes) or 2 (polarized=cell length≧width×2). Scores of 100 polymorphonuclear leukocytes for each sample were added to produce a polarization index. A dose response was performed for each chemoattractant. A concentration of each chemoattractant was chosen from the linear portion of each dose response curve and used as the positive control. Negative control samples consisted of polymorphonuclear leukocytes in HBSS only. […] The Student's t-test (unpaired) was used to analyze the differences in the mean polarization response between polymorphonuclear leukocytes activated with the chemoattractant in the absence or presence of complementary peptides.

[2] = system: alkali-injured rabbit eye; assay: Alkali-injury model, corneal ulceration; format: in vivo
Experimental: Animals were maintained and treated in full compliance with the Association for Research in Vision and Ophthalmology (ARVO) Resolution on the Use of Animals in Research. Forty-eight New Zealand Dutch strain albino rabbits (Myrtles Rabbitry, Thompson Station, Tenn., U.S.A.) weighing 2.0 to 2.5 kg were anesthetized with ketamine HCl (12 mg/kg) and xylazine (7.5 mg/kg). Two drops of topical proparacaine (Allergan, Hormigueros, Puerto Rico) were placed in the right eye of each rabbit. Following ocular proptosis, a 12 mm plastic well was centered on the cornea and 0.4 ml of 1 N NaOH instilled into the well and left for a period of 35 sec. The alkali was aspirated and the well irrigated with 10 ml of physiological saline. Erythromycin ointment (0.5%) was applied two times a day and study medications given by the technique of Fraunfelder. Double blind examinations (slit lamp and dissecting microscopy) were conducted on Monday, Wednesday and Friday with photographs on Wednesday. Evaluation was made for the presence and size of epithelial defects, corneal ulceration, perforation and vascularization. Animals were randomly subdivided into two groups of 16 eyes each: 1) Phosphate buffered saline (PBS) control and 2) 800 μM (D)-RTR tetramer in PBS or 1.5 mM (L)-RTR tetramer in PBS alternating every hour. Each animal received one drop of the appropriate medication every hour for 14 hours a day for 33 days and dropping was discontinued until the end of the experiment on day 42.

LTB4 activated PMN = assay: Polarization assay: inhibition of LTB4 activated PMN polarization; format: cell-based, human
Experimental: LTB4 was dissolved in ethanol and diluted with HBSS (pH 7.3) to a final ethanol concentration of 0.001%. Synthetic complementary peptides and synthetic chemoattractants were dissolved in HBSS (pH 7.3). When necessary, the osmolality was adjusted between 280 and 320 mOsm by adding a small amount of distilled water.
(§3) Following the technique of Ferrante and Thong^13, polymorphonuclear leukocytes were isolated from fresh heparinized human whole blood by centrifugation on Hypaque-Ficoll (density=1.114) according to a described method^14. Isolated polymorphonuclear leukocytes (96-99% viability) were resuspended in HBSS with 15 mM phosphate buffer at room temperature and gently agitated on a shaker. The purity of this cell suspension was ≧85% polymorphonuclear leukocytes, ≦5% mononuclear cells and platelets, with the remaining percentage consisting of red blood cells. Purified polymorphonuclear leukocytes were used in the polarization assay. All incubation mixtures were maintained between an osmolality of 280 to 320, a pH range of 7.2 to 7.6, 15 mM phosphate buffer, and 50 μM Ca^2+ and 50 μM Mg^2+.
The polarization assay^15 was performed in a blind fashion. […] The resulting supernatant was analyzed for lactic dehydrogenase activity.^16 All incubations generated lactate dehydrogenase activity correlating with <5% cell death. […]

resting PMNs = assay: Polarization assay: substance alone on resting PMNs (agonist activity, chemoattractant response); format: cell-based, human; conditions: none up to the given concentration
Experimental: as §3
The polarization assay^15 was performed in a blind fashion. This assay was used to determine the polymorphonuclear leukocyte response to chemoattractants and inhibitors by measuring the frequency and degree of cellular shape change. Briefly, 2×10^5 polymorphonuclear leukocytes were mixed with preincubated synthetic complementary peptides and chemoattractants in a reaction chamber (total volume=100 μl) at 37° C. for 5 min. At the end of the incubation period an aliquot was collected and mixed with an equal volume of 4% glutaraldehyde for microscopic observation. The remaining volume of each cell suspension was immediately centrifuged at 15,000× g for 5 seconds to remove cells. The resulting supernatant was analyzed for lactic dehydrogenase activity.^16 All incubations generated lactate dehydrogenase activity correlating with <5% cell death. Polymorphonuclear leukocytes in each sample were observed microscopically and assigned scores of 0 (resting=spherical cell with a smooth membrane), 1 (activated=irregular cell with uneven membranes) or 2 (polarized=cell length≧width×2). Scores of 100 polymorphonuclear leukocytes for each sample were added to produce a polarization index. A dose response was performed for each chemoattractant. […]

[3] = system: N-acetyl-PGP activated PMN; assay: Polarization assay: inhibition of N-acetyl-PGP activated PMN polarization; format: cell-based, human; conditions: for inhibitory properties against N-acetyl-PGP, fold less than the RTR dimer: comparison of ID50 values
Experimental: as §1, §2

[4] = day 42, 16 eyes, topical drops to day 33

Substance | inhibition of PMNs activated by the ultrafiltered tripeptide chemoattractants, in words [1] | TOTAL ULCERS End of expt (day 42) (number) ([2]; 16 eyes, day 42) | TOTAL ULCERS End of expt (day 42) (percent of eyes) ([2]; 16 eyes, day 42) | TOTAL ULCERS During expt (number) ([2]; 16 eyes, during experiment) | TOTAL ULCERS During expt (percent of eyes) ([2]; 16 eyes, during experiment) | incidence of corneal ulcers after alkali-injury, in words ([2]; compared to PBS group) | number of ulcers ([2]; day 33, 16 eyes, 800 μM (D)- and 1.5 mM (L)-RTR tetramer drops alternating every hour) | ULCER DEPTH: Anterior (eyes) [2, 4] | ULCER DEPTH: Descemetocele (eyes) [2, 4] | ULCER DEPTH: Middle (eyes) [2, 4] | ULCER DEPTH: No Ulcer (eyes) [2, 4] | ULCER DEPTH: Perforation (eyes) [2, 4] | ULCER DEPTH: Posterior (eyes) [2, 4] | antagonism of LTB4 activation of PMNs, in words (LTB4 activated PMN) | Agonist Activity (resting PMNs) | affinity for N-acetyl-PGP, fold greater than the RTR monomer [3] | inhibition of N-acetyl-PGP activated PMN polarization, in words [3] | inhibitory properties against N-acetyl-PGP, fold less than the RTR dimer [3]
((H2N-Arg-Thr-Arg-Gly-Gly)2-Lys)2-Lys-Ala-CONH2 (H-RTRGG; also: tetrameric Lys-branched, on Lys-Ala-CONH2 core) [RTR tetramer] | inhibited | 6 | 37.5% | 7 | 43.8% | statistically significant reduction in the frequency of corneal ulceration | 4 ulcers | 4 | 1 | 0 | 9 | 0 | 2 | no effect on LTB4 | None, ≦ 8 mM | 10,000 fold |  | 
Arg-Thr-Arg [RTR] | inhibited |  |  |  |  |  |  |  |  |  |  |  |  |  | None, ≦ 40 mM |  | only antagonistic at millimolar concentrations | 20 fold
RTRGG | inhibited |  |  |  |  |  |  |  |  |  |  |  |  |  | None, ≦ 40 mM |  | only antagonistic at millimolar concentrations | 20 fold
